Measurements as given in article PMC5025054 (PLoS ONE, 2016).
Where two headings read alike, the source gives them in different places.

Assays:
[1] = biological target: T1, Human recombinant GSK-3β (Homo sapiens, UniProt P49841); details: cited from earlier work
T1 construct: purchased Millipore (Millipore Iberica S.A.U.)

[2] = system: SH-SY5Y cells; assay: Neuroprotection in cellular L-BMAA model (MTT cell viability); type: cell-based; details: L-BMAA 10 mM, inhibitors 10 μM, 24 h
Description: SH-SY5Y cells on a 96 well plate ere incubated with L-BMAA (10 mM) with or without inhibitors (10 μM). A control experiment was set at the same time without L-BMAA or inhibitors. After 24 h a MTT was performed to determine cell viability using known procedures in the literature. Experiment was performed in triplicate.
Mechanistically and structurally diverse GSK-3 inhibitors were tested in a cellular model of L-BMAA to study whether GSK-3 inhibition was implicated in neuroprotection at L-BMAA damage, using a forward chemical genetic approach. […] Cells were incubated with L-BMAA together with or without inhibitors for 24 h and cell viability was determined.

[3] = system: LC3-II and P-mTOR; assay: Analysis of LC3-II and P-mTOR by western-blot (autophagy) in motor cortex and lumbar spinal cord; type: in vivo, Rattus norvegicus
Description: The entire brain and the lumbar spinal cord were rapidly removed and stored at -80°C.
To analyse LC3-II and P-mTOR by western-blot, 100 mg of motor cortex and lumbar spinal cord of each animal were homogenized in a RIPA buffer: 50 mM Tris–HCl pH 7.4, 50 mM NaCl, Nonidet P-40 1%, 1 mM EDTA, 1 mM PMSF, 1 mg/mL aprotinin, […] leupeptin, 1 mg/mL pepstatin, at a rate of […] of tissue. The mixture was sonicated for 2 min with 2 s pulses of sonication and 2 s off at amplitude of 40%. Once the samples were homogenized, the evaluation and protein electrophoresis was performed. The protocol was adapted from Zhang et al as described in Muñoz-Sáez et al.
Before the electrophoresis, the protein concentrations of all samples were determined by Bradford assay (Sigma–Aldrich Inc., St. Louis, MO, USA; Bradford, 1976).
Electrophoresis for protein separation was performed by SDS-PAGE. In all cases, the concentrating gel contained 6% polyacrylamide. Regarding LC3-II, the percentage of polyacrylamide was 12% for the separating gel and for P-mTOR an 8% polyacrylamide separating gel was used. Subsequently, proteins from the gels were transferred to a nitrocellulose membrane (AmershamTM HybondTM–ECL) in a wet system at 10 V o/n and 4°C. Membranes were incubated with following primary antibodies: a rabbit polyclonal anti-tubulin β-III (Novus Biologicals, Littleton, CO, USA), a rabbit polyclonal anti-LC3-II (Novus Biologicals, Littleton, CO, USA) and rabbit polyclonal anti-mTOR (Phospho-Ser2448) (Novus Biologicals, Littleton, CO, USA). As a secondary antibody, we applied Donkey anti-rabbit IgG-Fc Horseradish Peroxidase (HRP) (Bethyl Laboratories, Montgomery, TX, USA). All the antibodies were used according to the manufacturers’ specifications. Proteins were detected by enhanced chemiluminescence. Digital images were acquired using a Fujifilm Intelligent Darkbox II (Fuji Systems USA, Stamford, CT) and the image processing for quantification was conducted with free image processing software Image J.

[4] = Weight progression of treated rats; type: in vivo, Rattus norvegicus; details: alone or co-administered, VP2.51 2.5 mg/Kg i.p. 15 days, L-BMAA 300 mg/kg i.p. 5 days, 100 days
From the text: After this time the animals were sacrificed.

[5] = system: male rats, Wistar strain; assay: Neurological evaluation in L-BMAA motor neuron disease model
Description: Assays were carried out using male rats of Rattus norvegicus, albino variety, Wistar strain, that were supplied by Harlan Interfauna Ibérica S.A. (Barcelona, Spain). Animals were kept at constant temperature (21 ± 1°C) on a reversed light/dark cycle with diets and water ad libitum (A04 commercial rodent diet, Panlab, Barcelona, Spain). […] Animal’s health was monitored by weight control. […] Animals were sacrificed at the established time point under general anaesthesia with isoflurane (ISOFLO®, Abbott Laboratories, Abbott Park, IL, USA).
At weaning time (postnatal day 21) animals, with a weight between 45 and 55 g, were intraperitoneally (i.p.) injected with 300 mg/kg of L-BMAA (L-BMAA hydrochloride, Sigma-Aldrich, Ref. B107), during 5 consecutive days. The injected solution was composed by 50 mg of L-BMAA dissolved in 500 μl of PBS (0.1 mg / μl).
VP2.51 was dissolved in a stock solution of DMSO (dimethyl sulfoxide, Sigma) at 100 mg/mL. This stock was used to prepare a final solution of 1 mg/mL in PBS with 5% DMSO and 5% Tween® 80 (Sigma). Rats were injected i.p. 2.5 mg/Kg beginning at two different times: on the first day after treatment with L-BMAA (PT1) and on day post-treatment 30 (PT30). Injection treatment was performed for 15 consecutive days.
In summary, 6 different groups of 12 animals each were used: Control (only PBS injected), L-BMAA, L-BMAA+VP2.51 PT1, VP2.51 PT1, L-BMAA+VP2.51 PT30, VP2.51 PT30. Weight monitoring was performed every day during 100 days. After this time the animals were sacrificed.
The neurological tests were carried out blindly as described by de Munck et al [13], once a week during 100 days. Briefly, the neurological assess was carried out with three different tests: ambulation, tail suspension test and strength test. […] In the tail suspension test, the rat was suspended by the tail at 10 cm over the surface. The ability to keep the hind limbs in the normal neutral position adopted by rodents in such situation, i.e., describing a “T” was evaluated, together with the stiffness of the limbs and the inter-limb coordination during kicking. The strength test and was carried out setting down the rats on a flat surface, both forelegs and hind limbs on it, while pulling the tail softly to the opposite direction of animal usual move course. The ability the rats had to drag and offer resistance, assessing their faculty to kept hind limbs under the body without spreading their legs away from it was observed. The neurological evaluation was established in a scale comprised between 0 and 10, where 0 is the evaluation given to animals which are not symptomatic, control animals, and 10 belongs to a state of total functional loss of the hindlimbs and postural control.

[6] = In vitro parallel artificial membrane permeability assay (PAMPA-BBB); type: in vitro ADME, porcine; details: for Pe: PBS:DMSO (95:5), 4 h at 25°C, mean ± SD of 3 independent experiments
Description: Prediction of the brain penetration was evaluated using a parallel artificial membrane permeability assay (PAMPA). Ten commercial drugs, phosphate buffer saline solution at pH 7.4 (PBS), DMSO and dodecane were purchased from Sigma, Across organics, Aldrich and Fluka. […] Filter PDVF membrane units (diameter 30 mm, pore size 0.45 μm) from Symta were used to filter the samples. A 96-well plate UV reader (Thermoscientific, Multiskan spectrum) was used for the UV measurements. Test compounds were dissolved in DMSO (250 μL). 25 μL of this compound stock solution was taken and 225 μL of DMSO and 4750 μL of PBS pH 7.4 buffer were added to reach 5% of DMSO concentration in the experiment. These solutions were filtered. The acceptor 96-well microplate was filled with 180 μL of PBS:DMSO (95:5). The donor 96-well plate was coated with 4 μL of porcine brain lipid in dodecane (20 mg mL^-1) and after 5 minutes, 180 μL of each compound solution was added. […] Then the donor plate was carefully put on the acceptor plate to form a “sandwich”, which was left undisturbed for 4 h at 25°C. During this time the compounds diffused from the donor plate through the brain lipid membrane into the acceptor plate. After incubation, the donor plate was removed. The concentration of VP2.51 and commercial drugs in the acceptor and the donor wells was determined by UV plate reader. Every sample was analyzed at three to five wavelengths, in 3 wells and in three independent runs. […] Validation was made comparing the reported permeabilities values of commercial drugs with the experimental data obtained employing this methodology.
Finally, the ability to cross the blood-brain barrier (BBB) was determined. […] VP2.51 permeability through the BBB was evaluated by a parallel artificial membrane permeability assay (PAMPA) using porcine brain membrane lipid and ten commercial drugs following the methodology described by Di et al.

[7] = biological target: casein kinase-1δ (CK-1δ) (Homo sapiens, UniProt P48730); assay: CK-1δ inhibition following a described protocol; type: biochemical
casein kinase-1δ (CK-1δ), sequence (P48730 whole entry): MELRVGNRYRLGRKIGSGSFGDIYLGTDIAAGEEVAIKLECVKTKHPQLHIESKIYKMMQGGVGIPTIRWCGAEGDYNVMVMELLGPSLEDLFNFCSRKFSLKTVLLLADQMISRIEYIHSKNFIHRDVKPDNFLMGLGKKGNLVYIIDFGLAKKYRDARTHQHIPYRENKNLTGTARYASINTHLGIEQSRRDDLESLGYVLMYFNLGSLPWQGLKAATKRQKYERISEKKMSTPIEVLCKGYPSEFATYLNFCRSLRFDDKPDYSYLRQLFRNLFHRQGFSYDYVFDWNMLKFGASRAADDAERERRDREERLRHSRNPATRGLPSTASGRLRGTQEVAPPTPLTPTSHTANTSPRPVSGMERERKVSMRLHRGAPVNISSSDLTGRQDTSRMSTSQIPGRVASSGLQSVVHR

[8] = system: multiple sclerosis model; parameters: method as in PMID 23606540; details: cited from earlier work
[9] = system: cytochromes P450 family; parameters: method as in earlier work; details: cited from earlier work
[10] = system: panel of fifty different human kinases; details: fixed concentration 10 μM
Description: Fig 1 Biological activity of VP2.51 on GSK-3 and other protein kinases. […] B) Kinetic GSK-3 inhibition data determined for VP2.51. ATP concentrations in the reaction mixture varied from 1 to 50 μM. […] Each point is the mean of two different experiments, each one analyzed in duplicate. C) Kinase profiling of VP2.51 on human recombinant kinases. The percentage (%) of kinase activity after the treatment with a fixed concentration (10 μM) of the compound is shown.

[11] = biological target: T1, Human recombinant GSK-3β; assay: Inhibition of GSK-3 (Kinase-Glo luminescent assay; ADP-Glo for kinetics); type: biochemical
Description: Human recombinant GSK-3β was purchased from Millipore (Millipore Iberica S.A.U.). The prephosphorylated polypeptide substrate was purchased from Millipore (Millipore Iberica S.A.U.). Kinase-Glo Luminescent Kinase Assay was obtained from Promega (Promega Biotech Ibérica, SL). ATP and all other reagents were from Sigma-Aldrich (St. Louis, MO). Assay buffer contained 50 mM HEPES (pH 7.5), 1 mM EDTA, 1 mM EGTA, and 15 mM magnesium acetate.
The method of Baki et al was followed to analyse the inhibition of GSK-3β. Kinase-Glo assays were performed in assay buffer using black 96-well plates. […] After 30 min incubation at 30°C the enzymatic reaction was stopped with 40 μl of Kinase-Glo reagent. Glo-type luminescence was recorded after 10 min using a FLUOstar Optima (BMG Labtechnologies GmbH, Offenburg, Germany) multimode reader. The activity is proportional to the difference of the total and consumed ATP. The inhibitory activities were calculated on the basis of maximal activities measured in the absence of inhibitor. […] To investigate the inhibitory mechanism of VP2.51 on GSK-3β, a kinetic study varying both ATP (from 1 to 50 μM) and VP.251 (from 0.5 to 1 μM) concentrations were performed using the ADP-Glo Kinase Assay.
To study the type of enzymatic inhibition for the compounds, measurements after several times of incubation of the enzyme with the inhibitor VP2.51 were performed.

T1 sequence (P49841 whole entry): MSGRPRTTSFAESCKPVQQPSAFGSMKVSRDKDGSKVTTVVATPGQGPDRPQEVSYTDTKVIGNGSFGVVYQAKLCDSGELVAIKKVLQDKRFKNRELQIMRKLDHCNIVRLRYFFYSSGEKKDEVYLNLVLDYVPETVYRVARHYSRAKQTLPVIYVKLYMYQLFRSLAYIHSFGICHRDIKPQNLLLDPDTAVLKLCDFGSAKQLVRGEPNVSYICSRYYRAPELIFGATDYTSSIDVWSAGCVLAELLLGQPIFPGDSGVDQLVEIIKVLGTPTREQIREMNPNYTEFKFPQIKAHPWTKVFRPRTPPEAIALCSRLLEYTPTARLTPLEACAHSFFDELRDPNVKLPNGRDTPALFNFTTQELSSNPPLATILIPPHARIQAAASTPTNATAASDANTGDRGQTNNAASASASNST

In the case of `CC(=O)C1=C(c2cn(C)c3ccccc23)C(=O)NC1=O` [INH-38], the “Kind of GSK-3 inhibition” value [1] is listed as “ATP-competitive inhibitors” and the “Cell viability, protection from L-BMAA damage” value (from here on “Cell viability, protection”) [2] is listed as “protect cells from L-BMAA damage”.
For `c1ccc(-c2n/c(=N/CCN3CCOCC3)sn2-c2ccccc2)cc1` [ITDZ 55], the “Kind of GSK-3 inhibition” value [1] is listed as “substrate competitive inhibitor” and the “Cell viability, protection” value [2] is listed as “protect cells from L-BMAA damage”.
With `CNC[C@H](N)C(=O)O` [L-BMAA, β-N-methylamino-L-alanine, reference compound] the “P-mTOR levels in lumbar spinal cord vs control animals” value ([3]; L-BMAA treated rats, t = 3.257, p = 0.031) was “significantly higher”, the “P-mTOR levels in motor cortex vs control animals” value ([3]; L-BMAA treated rats, t = 5.889, p = 0.0042) was “significantly higher” and the “LC3-II levels in motor cortex vs control animals” value ([3]; L-BMAA treated rats, t = 5.969, p = 0.027) was “significantly higher”. The “LC3-II levels in lumbar spinal cord vs control animals” value ([3]; L-BMAA treated rats, t = 46.85, p = 0.0005) was “significantly higher”, the “Effect on weight progression / physical development” value [4] was “do not affect physical development” and the “neurological evaluation score (scale 0-10)” value ([5]; rats treated with L-BMAA only, 300 mg/kg i.p. 5 consecutive days) was 7 points.
For `CN1C(C(=O)Nc2ccccn2)=C(O)c2ccccc2S1(=O)=O` [Piroxicam, reference compound], the Pe ([6]; PAMPA-BBB) was 1.7 ± 0.3 10^-6 cm s^-1.
For `CN(C)CCCN1c2ccccc2Sc2ccccc21` [Promazine, reference compound], the Pe ([6]; PAMPA-BBB) was 8.9 ± 1.0 10^-6 cm s^-1.
For `CCCCCCCCCCCC(=O)NNC(=O)c1c(O)c2ccccc2n(CC)c1=O` [VP0.7], the “Kind of GSK-3 inhibition” value ([1]; does not compete with ATP nor substrate) is listed as “allosteric inhibitor” and the “Cell viability, protection” value [2] is listed as “protect cells from L-BMAA damage”.
For `COc1ccc(CNC(=O)Nc2nc(C)c(C(C)=O)s2)cc1` [VP2.51, 1-(5-Acetyl-4-methyl-1,3-thiazol-2-yl)-3-(4-methoxybenzyl)urea], the BBB prediction ([6]; PAMPA-BBB) was “CNS + (CNS + when they present a permeability > 4.15 x 10^−6 cm s^-1)”, the Pe ([6]; PAMPA-BBB) was 7.6 ± 0.4 10^-6 cm s^-1 and the Papp at 4 h ([6]; pig, pH 7.4, PAMPA, porcine brain membrane lipid, read-out: effective permeability) was 7.6 ± 0.4 ×10⁻⁶ cm/s. The IC50 [7] was 7.28 ± 0.87 µM, the “CK-1δ IC50 relative to GSK-3 IC50” value ([7]; fold over GSK-3 inhibition) was “tenfold” and the “Efficacy in multiple sclerosis model” value [8] was “effective”. The “Inhibition of cytochromes P450 family” value [9] was “weak or partial inhibitor”, the “P-mTOR level in lumbar spinal cord vs L-BMAA treated animals” value ([3]; L-BMAA+VP2.51 at PT1) was “lower non-significant” and the “LC3-II levels in motor cortex vs L-BMAA treated animals” value ([3]; L-BMAA+VP2.51 at PT1, t = 3.547, p <0.05) was “significantly lower”. For the same compound, the “LC3-II levels in lumbar spinal cord vs L-BMAA treated animals” value ([3]; L-BMAA+VP2.51 at PT1, t = 5.083, p <0.01) was “lower”, the “P-mTOR levels in motor cortex vs L-BMAA treated animals” value ([3]; L-BMAA+VP2.51 at PT1, t = 7.223, p <0.001) was “significantly lower” and the “Cell viability, protection” value [2] was “protect cells from L-BMAA damage”. For the same compound, the “Effect on weight progression / physical development” value [4] was “do not affect physical development”, the Kinase selectivity profile [10] was “targeting only both isoforms of GSK-3, α and β, and with less potency, casein kinase-1δ (CK-1δ)” and the “Evolution of neurological evaluation vs L-BMAA only group” value ([5]; L-BMAA + VP2.51 PT1 (2.5 mg/Kg i.p. 15 days from day 1 after L-BMAA), F = 89.34, p <0.0001) was “markedly improved”. The “Evolution of neurological evaluation vs L-BMAA only group” value ([5]; L-BMAA + VP2.51 PT30 (2.5 mg/Kg i.p. 15 days from day 30 post-treatment)) was “did not show significant differences”, the “neurological evaluation score (scale 0-10)” value ([5]; rats treated exclusively with VP2.51 (PT1 and PT30), 2.5 mg/Kg i.p. 15 days) was “zero” and the “Neurological pathologies or observable toxicities” value ([5]; rats, VP2.51 2.5 mg/Kg i.p. 15 days) was “does not promote either neurological pathologies or observable toxicities”. For the same compound, the “Inhibitory mechanism (kinetic experiments)” value ([11]; ATP 1 to 50 μM, GS-2 12.5 μM, ADP-Glo) was “competes in vitro with ATP”, the “Type of enzymatic inhibition (time dependent experiments)” value ([11]; VP2.51 at 1 and 2 μM, several times of incubation with enzyme) was “reversible inhibition” and the IC50 ([11]; human recombinant enzyme, 1 μM ATP, 30 min, 30°C, read-out: GSK-3 inhibitory activity in vitro IC50) was 0.62 ± 0.15 µM.
